Assay results: patent publication US8729048B2, “Methods and materials for assessing responsiveness to PARP inhibitors and platinating agents” (Mayo Foundation for Medical Education and Research, priority 2011, dated 2014)

Legend:
Type in all cases: cell-based
[1] = test system: ATM-deficient GM16666 fibroblasts; assay: Clonogenic assay, GM16666; details: GM16666 cells versus ATM-reconstituted GM16667, 48 hours
Procedure: FIG. 6. […] (A) BRCA1-deficient HCC1937 and BRCA1-reconstituted HCC1937/BRCA1 cells were continuously exposed to ABT-888 in the presence or absence of 125 nM DNA-PKi and assayed for clonogenic survival. Inset, Western blots of cell lysates from HCC1937 and HCC1937/BRCA1. (B) Western blots of M059J and reconstituted M059J+DNA-PKcs lines showing the restoration of DNA-PK expression and the shRNA-mediated knockdown of BRCA1. (C) Clonogenic survival of shRNA transfected M059J/M059J+DNA-PKcs lines treated with ABT-888 for 72 hours. (D) Clonogenic survival of ATM-deficient GM16666 or ATM-reconstituted GM16667 fibroblasts. Cells were exposed to ABT-888 for 48 hours in the presence or absence of 250 nM DNA-PKi, washed, and allowed to form colonies. Inset, Western blots of lysates from GM16666 and GM16667 fibroblasts. […] Results are representative of 3 independent experiments.
Colony formation assays were performed on siRNA-transfected PEO1 and PEO4 cells 48 hours after the second transfection. Cells were trypsinized and plated at 750 cells/plate in triplicate 60-mm dishes containing medium A, allowed to grow 10-14 days, and stained with Coomassie Brilliant Blue. Colonies containing ≧50 cells were scored manually. […]

[2] = test system: MMEJ activity in PEO1 cells; assay: Microhomology mediated end-joining assay (MMEJ), PEO1; details: 72 hours
Text: FIG. 11. PARP inhibition fails to induce microhomology-mediated end-joining (MMEJ). (A) Schematic of the reporter substrate used to assay for MMEJ activity. Cleavage of pDVG94 with EcoRV and AfeI creates a blunt-ended linearized substrate, with identical 6-bp ends. Direct joining by NHEJ will result in maintenance of both repeats, but MMEJ will excise one repeat, introducing a new BstXI site. PCR across recircularized substrate produces a product of 180 bp, which can be cut into 120 and 60 bp fragments if the BstXI site was created. This figure is adapted from a figure provided elsewhere (Verkaik et al., Eur. J. Immunol., 32:701-709 (2002)). (B) and (C) Agarose gel from a representative MMEJ assay. PEO1 (B, lanes 1-10) and PEO4 (C) cells were treated with increasing concentrations of ABT-888 following transfection with linearized pDVG94. The size of the initial PCR product (180 bp) as well as BstXI cleaved products (120 bp and 60 bp) are indicated. As a positive and negative control, a cell line previously documented to undergo MMEJ (Lou et al., J. Biol. Chem., 279:46359-46362 (2004)), M059J (B, lanes 11 and 12), and a MMEJ-negative line, M059J+DNA-PKcs (B, lanes 13 and 14) were used. Images were captured from one gel and cut to create two panels. […]

[3] = test system: HPRT locus in BRCA2-mutant CAPAN1 cells; assay: HPRT mutagenesis assay; details: 250 nM DNA-PKi, 72 hours
Procedure: FIG. 4. PARP inhibitor-induced chromosomal derangement and genomic instability is dependent on DNA-PK activity. (A) Representative images of metaphase spreads from cells treated with diluent (0.2% DMSO), 500 nM DNA-PKi, 2.5 μM ABT-888, or both ABT-888 and DNA-PKi for 72 hours. Chromosomal breaks are marked with arrowheads and radial structures are marked with asterisks. (B) Quantitation of data from (A) showing average radial chromosomes per cell (n=100 for each data point pooled from two separate experiments, error bars represent SEM). † indicate values that are zero. (C) Calculated mutagenesis frequency in BRCA2-mutant CAPAN1 cells after control treatment or exposure to ABT-888 with or without 250 nM DNA-PKi. Each bar represents the mean±SEM of 5-8 plates.
HPRT mutagenesis was performed as described elsewhere (Hashimoto et al., Clin. Cancer Res., 1:369-376 (1995)). […] Each sample group was trypsinized, replated at 10^6 cells/100-mm dish in medium E supplemented with 15 μM 6-TG, cultured until colonies were visible (14-21 days), and analyzed manually for colony formation. […] Mutagenesis frequencies were calculated by dividing the number of colonies on 6-TG-treated plates by the total number of possible colonies (10^6 cells×plating efficiency).

SMILES | clonogenic sensitivity [1] | induction of MMEJ [2] | effect of co-administration on PARP inhibitor-induced HPRT mutation frequency [3]
C[C@]1(c2nc3c(C(N)=O)cccc3[nH]2)CCCN1 [ABT-888] | heightened sensitivity | not detected | 
CCN1CCN(CC(=O)Nc2ccc(-c3cccc4c(=O)cc(N5CCOCC5)oc34)c3sc4ccccc4c23)CC1 [AZ 12594248] |  |  | markedly reduced the mutation frequency
